Values after ≈ are worked out from the molar mass of the structure shown. Like-named read-outs stand apart in the source and are kept apart here.
Assays:
E. coli ATCC 25922 = assay: NCCLS MIC/MBC microdilution, E. coli; type: cell-based; settings: plate EC
Description: (§1) [BBL Mueller Hinton Broth].

Enterococcus faecium = assay: NCCLS MIC/MBC microdilution, Enterococcus (vancomycin sensitive); type: cell-based; settings: for MBC: read at 48 hr
Description: as §1

S. aureus = assay: NCCLS MIC/MBC microdilution, S. aureus patient isolates; type: cell-based, Staphylococcus aureus; settings: for MBC: read at 48 hr
Description: as §1

[1] = tested on: Vancomycin resistant S. aureus ATCC700699 and 700788 (VRSA); assay: NCCLS MIC/MBC microdilution, vancomycin resistant S. aureus; type: cell-based, Staphylococcus aureus; settings: for MIC, VRSA (ATCC 700699) / MIC, VRSA (ATCC 700788): Table 3, 24 h and 48 h same results; for MBC: read at 48 hr
Description: as §1

Mycobacterium chelonae = assay: MIC, Mycobacterium chelonae; type: cell-based; settings: Table 3
Candida albicans = assay: MIC, Candida albicans; type: cell-based
human fibroblasts = assay: Toxicity study with human fibroblasts; type: cell-based
[2] = tested on: chloroquin (CQ) resistant strain of Plasmodium falciparum (Pf); assay: In vitro efficacy against chloroquin resistant Plasmodium falciparum; type: cell-based
Method: Tx-5 and Tx-84 were tested for in vitro efficacy against a chloroquin (CQ) resistant strain of Plasmodium falciparum (Pf). The tests were performed in triplicate at a wide variety of concentrations and evaluated for effect compared with CQ.

[3] = tested on: Mycobacterium tuberculosis; settings: Table 3
[4] = tested on: VRE (Vancomycin resistant Enterococci); assay: NCCLS MIC/MBC microdilution, VRE; settings: for MIC, VRE enterococcus (E. faecalis): Table 3, 24 h and 48 h same results; for MIC: plate D4, VRE patient isolate
Method: (§2) Standard NCCLS (e.g., National Committee for Clinical Laboratory Standards) methods for determining MIC (e.g., minimum inhibitory concentration) and MBC (e.g., minimum bactericidal concentration) were used. 96 well micro-well plates were placed in a humid chamber and frozen at −70° C. [BBL Mueller Hinton Broth]. Drugs (e.g., antimicrobial compounds of the present invention) were added to a series of wells through 2 fold serial dilutions. 100 μl of a 2×10^−3 M solution of the respective Tx compounds was added to the first well in a series. 100 μl of the inoculum (e.g., microorganism) was added to the well. […] For example, the concentration in well 8 would be less than the concentration of the same drug in well 7. Inoculum (e.g., microorganism) that was added to the wells was prepared from 24 hour growth of an isolate on 5% sheep blood/Columbia agar plates. 5 to 10 representative colonies were then picked from the plates and added to saline and adjusted to 0.5 McFarland turbidity. Next the sample was diluted 1:100 in saline, such that 100 μl of the diluted sample contained approximately 1×10^5 microbes. 100 μl of the diluted sample was added to each well in a series of drug concentrations. Once the cells were added to the wells, the well plates were incubated at 35° C. without CO2 for 48 hrs and at this time the minimum bactericidal concentration was determined.
(§3) The MIC of Tx-118, Tx-147, and Tx-197 for certain Staphylococcus aureus (MRSA), Pseudomonas aeruginosa, Stenotrophomonas maltophilia, and VRE Enterococcus faecalis was determined using standard NCCLS methods. The first well in each series of decreasing drug concentrations contained 1×10^−4 M of a drug. The drug was diluted by serial two fold dilutions through all 12 wells in a series. There was a final DMSO concentration of 2% in the first well and 1% in the second well, etc. Tests with Tx-118 and Tx-197 were performed in triplicate, and tests with Tx-147 were performed in duplicate.

[5] = tested on: MRSA (oxacillin/methicillin resistant S. aureus); assay: NCCLS MIC/MBC microdilution, MRSA; settings: for MIC, MRSA (methicillin resistant): Table 3, 24 h and 48 h same results; for MBC: read at 48 hr, 10^−3 kill
Method: as §2, §3

P. aeruginosa = assay: NCCLS MIC/MBC microdilution, P. aeruginosa; design: MIC: key to the marks not given beside the values; settings: for MIC, P. aeruginosa: Table 3, P. aeroginosa is L13 from Table 2
[6] = tested on: Stenotrophomonas maltophilia; assay: NCCLS MIC/MBC microdilution, S. maltophilia; settings: for MIC, Stenotrophomonas maltophilia: Table 3, 24 h and 48 h same results; for MBC: read at 48 hr, 10^−3 kill
Method: as §2, §3

Aspergillus fumigatus = assay: MIC, Aspergillus fumigatus; type: cell-based; settings: Table 3
Fusarium = assay: MIC, Fusarium; type: cell-based; settings: Table 3
[7] = plate E348, Enterococcus faecium patient isolate
[8] = plate E502, Enterococcus faecium ATCC 502806
[9] = plate E523, Enterococcus facium patient isolate
[10] = plate S332, S aureus patient isolate
[11] = plate S520, S aureus patient isolate penicillin resistant
[12] = plate 699, VancoR S. aureus ATCC700699
[13] = plate 788, VancoR S. aureus ATCC 700788
[14] = plate K12, MRSA patient isolate
[15] = plate 37, P. aeruginosa sensitive isolate
[16] = plate ATCC, P. aeruginosa ATCC 27853
[17] = plate L13, P. aeruginosaR (multi-resistant)
[18] = plate C3, S. maltophilia patient isolate
[19] = plate I10, S. maltophilia patient isolate
[20] = plate J11, S. maltophilia patient isolate

c1ccc2c(c1)ccc1c3ccc(NCCCCN4CCCCC4)cc3ccc21 [Tx-5, N-(2′-chrysenyl)-4-(1′-piperidinyl)-butane-1,4-diamine]
MIC (E. coli ATCC 25922): 48/48 ug/ml
MBC (E. coli ATCC 25922; read at 48 hr, 10^−3 kill): 48/48 ug/ml
MIC (Enterococcus faecium; [7]): 1.5 µg/mL (≈ 3.92 µM)
MBC (Enterococcus faecium; [7]): 3 µg/mL (≈ 7.84 µM)
MIC (Enterococcus faecium; [8]): 1.5 µg/mL (≈ 3.92 µM)
MBC (Enterococcus faecium; [8]): 6 µg/mL (≈ 15.7 µM)
MIC (Enterococcus faecium; [9]): 1.5/1.5 ug/ml
MBC (Enterococcus faecium; [9]): 1.5/1.5 ug/ml
MIC (S. aureus; [10]): 0.4 µg/mL (≈ 1.05 µM)
MBC (S. aureus; [10]): 0.7 µg/mL (≈ 1.83 µM)
MIC (S. aureus; [11]): 1.5/1.5 ug/ml
MBC (S. aureus; plate S520, S aureus patient isolate): 1.5/1.5 ug/ml
MIC, VRSA (ATCC 700699) [1]: 1.5 µg/mL (≈ 3.92 µM)
MIC, VRSA (ATCC 700788) [1]: 3.0 µg/mL (≈ 7.84 µM)
MIC [1, 12]: 1.5 µg/mL (≈ 3.92 µM)
MBC [1, 12]: 12 µg/mL (≈ 31.4 µM)
MIC [1, 13]: 3 µg/mL (≈ 7.84 µM)
MBC [1, 13]: 12 µg/mL (≈ 31.4 µM)
MIC, Mycobacterium chelonae (Mycobacterium chelonae): 5 to 24 µg/mL
inhib. of Candida albicans (Candida albicans; @ 15 ug/ml): (90% inhib. @ 15 ug/ml)
MIC, Candida albicans (Candida albicans; Table 3): 30 µg/mL (≈ 78.4 µM)
Toxicity/human fibroblasts (IC50) (human fibroblasts): 6 µg/mL
IC50 ([2]; CQ resistant P. falciparum, in vitro, triplicate): 154 µM
inhibitory effect against Pf ([2]; in words): weak effect
MIC, Mycobacterium tuberculosis [3]: 7 µg/mL (≈ 18.3 µM)
animal studies (ip), mortality (BDF1′ mice; 35 mg/kg ip): mg/kg (<10% mort)
MIC, VRE enterococcus (E. faecalis) [4]: 3 µg/mL (≈ 7.84 µM)
MIC [4]: 3 µg/mL (≈ 7.84 µM)
MIC, MRSA (methicillin resistant) [5]: 1.5 to 3 µg/mL
bactericidal activity against Staphylococcus aureus (MRSA) ([5]; in words, Example 1): bactericidal activity
MIC ([5]; plate A1, MRSA patient isolate): 3/3 ug/ml
MBC ([5]; plate A1, MRSA): 3/3 ug/ml
MIC ([5]; plate B2, MRSA patient isolate): 1.5 µg/mL (≈ 3.92 µM)
MIC ([5]; plate E5, MRSA patient isolate): 1.5 µg/mL (≈ 3.92 µM)
MIC ([5]; plate F6, MRSA patient isolate): 1.5/1.5 ug/ml
MBC ([5]; plate F6, MRSA): 1.5/1.5 ug/ml
MIC ([5]; plate G7, MRSA patient isolate): 1.5 µg/mL (≈ 3.92 µM)
MIC ([5]; plate H9, MRSA patient isolate): 3/3 ug/ml
MBC ([5]; plate H9, MRSA): 3/3 ug/ml
MIC [5, 14]: 3 µg/mL (≈ 7.84 µM)
MIC, P. aeruginosa (P. aeruginosa): No activity
MIC (P. aeruginosa; [15]): +++
MIC (P. aeruginosa; [16]): +++
MIC (P. aeruginosa; [17]): +++
MIC, Stenotrophomonas maltophilia [6]: 24 to 48 µg/mL
bactericidal activity against Stenotrophomonas maltophilia ([6]; in words, Example 1): some bactericidal activity
MIC [6, 18]: 48/48 ug/ml
MBC ([6]; plate C3, S. maltophilia): 48/48 ug/ml
MIC [6, 19]: 24/24 ug/ml
MBC ([6]; plate I10, S. maltophilia): 24/24 ug/ml
MIC [6, 20]: 48/48 ug/ml
MBC ([6]; plate J11, S. maltophilia): 48/48 ug/ml

c1ccc2c3c(ccc2c1)-c1c(cc(NCCCCN2CCCCC2)c2ccccc12)C3 [Tx-112]
MIC, VRSA (ATCC 700699) [1]: 8 µg/mL (≈ 19 µM)
MIC, VRSA (ATCC 700788) [1]: 8 µg/mL (≈ 19 µM)
MIC, Aspergillus fumigatus (Aspergillus fumigatus): 6.5 µg/mL (≈ 15.5 µM)
MIC, Fusarium (Fusarium): 3.3 µg/mL (≈ 7.85 µM)
MIC, VRE enterococcus (E. faecalis) [4]: 210 µg/mL (≈ 499 µM)
MIC, P. aeruginosa (P. aeruginosa): No activity

CN1CCN(C(=O)CCC(=O)Nc2cc3c(c4ccccc24)-c2ccc4ccccc4c2C3)CC1 [Tx-37, N-[11′-(13′H-Dibenzo[a,g]-fluorenyl)]-4-(4′N methyl-piperazinyl)-butane-1,4-dicarboxiamide]
MIC (E. coli ATCC 25922): +++
MIC (Enterococcus faecium; [7]): +++
MIC (Enterococcus faecium; [8]): +++
MIC (Enterococcus faecium; [9]): +++
MIC (S. aureus; [10]): +++
MIC (S. aureus; [11]): +++
Toxicity/human fibroblasts (IC50) (human fibroblasts): 5 µg/mL
animal studies (ip), mortality (BDF1′ mice; 30 mg/kg ip): 30 mg/kg (no mortality)
MIC, VRE enterococcus (E. faecalis) [4]: 58 µg/mL (≈ 125 µM)
MIC [4]: 58 µg/mL (≈ 125 µM)
MIC, MRSA (methicillin resistant) [5]: 1.8 to 7 µg/mL
MIC ([5]; plate A1, MRSA patient isolate): 7.2 µg/mL (≈ 15.5 µM)
MIC ([5]; plate B2, MRSA patient isolate): 3.6 µg/mL (≈ 7.77 µM)
MIC ([5]; plate E5, MRSA patient isolate): 3.6 µg/mL (≈ 7.77 µM)
MIC ([5]; plate F6, MRSA patient isolate): 1.8 µg/mL (≈ 3.88 µM)
MIC ([5]; plate G7, MRSA patient isolate): 3.6 µg/mL (≈ 7.77 µM)
MIC ([5]; plate H9, MRSA patient isolate): 7.2 µg/mL (≈ 15.5 µM)
MIC [5, 14]: 7.2 µg/mL (≈ 15.5 µM)
MIC, P. aeruginosa (P. aeruginosa): No activity
MIC (P. aeruginosa; [15]): +++
MIC (P. aeruginosa; [16]): +++
MIC (P. aeruginosa; [17]): +++
MIC, Stenotrophomonas maltophilia [6]: No activity
MIC [6, 18]: +++
MIC [6, 19]: +++
MIC [6, 20]: +++

— US20050107430A1, “Antimicrobial and antiviral compounds” (priority 2003, published 2005)
